Test results: the NIST ThermoML archive (doi:10.1016/j.fluid.2017.09.005)

Assay: xn = mol fraction of the nth substance listed
Settings: Liquid; for mass density: Vibrating tube method

CCO [ethanol] + O
viscosity [mPa·s], Capillary tube (Ostwald / Ubbelohde) method
Settings	x1 = 0.1	x1 = 0.2	x1 = 0.3	x1 = 0.4	x1 = 0.6	x1 = 0.8	x1 = 1
523.2 K, 20000 kPa	0.12	0.119	0.114	0.109	0.099	0.092	0.087
523.2 K, 30000 kPa	0.126	0.127	0.125	0.119	0.113	0.107	0.103
523.2 K, 40000 kPa	0.132	0.132	0.134	0.128	0.124	0.119	0.115
573.2 K, 20000 kPa	0.085	0.078	0.07	0.065	0.057	0.054	0.053
573.2 K, 30000 kPa	0.088	0.084	0.079	0.075	0.069	0.067	0.066
573.2 K, 40000 kPa	0.093	0.091	0.089	0.085	0.08	0.078	0.077
618.2 K, 20000 kPa	0.054	0.035	0.031	0.032	0.035	0.038	0.039
618.2 K, 30000 kPa	0.072	0.065	0.059	0.057	0.055	0.055	0.055
618.2 K, 40000 kPa	0.081	0.076	0.073	0.07	0.067	0.067	0.067

mass density [kg/m3]
Settings	x1 = 0.1	x1 = 0.2	x1 = 0.3	x1 = 0.4	x1 = 0.6	x1 = 0.8	x1 = 1
523.2 K, 20000 kPa	745.9	694.1	653.2	622.3	578.5	550.5	533.1
523.2 K, 30000 kPa	761.6	713.6	676.9	650.7	612.4	588.9	573.6
523.2 K, 40000 kPa	773.2	728.3	694.7	671.6	636.3	615.2	601.3
573.2 K, 20000 kPa	649.3	585.4	534.9	494.9	446.2	426.2	421.1
573.2 K, 30000 kPa	674.8	621.4	582.5	553.5	517.6	499	491.5
573.2 K, 40000 kPa	694.9	647.6	614	587.9	557.4	540.4	531
618.2 K, 20000 kPa	445.3	281.3	250.4	253.1	270.6	295	314.6
618.2 K, 30000 kPa	566.3	501.5	460.9	437.4	420.1	418.9	423.8
618.2 K, 40000 kPa	610.3	561	529.3	509.1	488.2	481.7	481.2

O [water] + CCCO
viscosity [mPa·s], Capillary tube (Ostwald / Ubbelohde) method, x2 = 0
Settings	523.2 K	573.2 K	618.2 K
20000 kPa	0.11	0.09	0.072
30000 kPa	0.113	0.093	0.077
40000 kPa	0.115	0.096	0.081

mass density [kg/m3], x2 = 0
Settings	523.2 K	573.2 K	618.2 K
20000 kPa	816.1	734.8	619.7
30000 kPa	825.5	750.7	656.9
40000 kPa	834.3	764.4	682.3

O [water] + CO
viscosity [mPa·s], Pressure drop in straight capillary, x2 = 0
Settings	523.2 K	573.2 K	618.2 K
20000 kPa	0.11	0.09	0.072
30000 kPa	0.113	0.093	0.077
40000 kPa	0.115	0.096	0.081

mass density [kg/m3], x2 = 0
Settings	523.2 K	573.2 K	618.2 K
20000 kPa	816.1	734.8	619.7
30000 kPa	825.5	750.7	656.9
40000 kPa	834.3	764.4	682.3

O [water] + CCO
viscosity [mPa·s], Capillary tube (Ostwald / Ubbelohde) method, x2 = 0
Settings	523.2 K	573.2 K	618.2 K
20000 kPa	0.11	0.09	0.072
30000 kPa	0.113	0.093	0.077
40000 kPa	0.115	0.096	0.081

mass density [kg/m3], x2 = 0
Settings	523.2 K	573.2 K	618.2 K
20000 kPa	816.1	734.8	619.7
30000 kPa	825.5	750.7	656.9
40000 kPa	834.3	764.3	682.3
